From patent US20120040941A1, “5-(2--1-HYDROXYETHYL)-8-HYDROXYQUINOLIN-2(1H)-ONE AND ITS USE IN THE TREATMENT OF PULMONARY DISEASES” (priority 2009, published 2012)

What was measured:
Format in all cases: in vivo, human
[1] = tested on: asthma patients; assay: Clinical Phase II study: lung function (spirometry, body plethysmography) after single inhaled doses
Text: (§1) Clinical Phase II study: A randomised double-blind, double-dummy, placebo and active comparator-controlled, cross-over trial assesses the activity, safety, tolerability and pharmacokinetics of single doses of 5-(2-{[6-(2,2-difluoro-2-phenylethoxy)hexyl]amino}-1-(R)-hydroxyethyl)-8-hydroxyquinolin-2(1H)-one heminapadisylate by inhalation in asthma patients.
(§2) Methods: Men with a diagnosis of mild to moderate persistent asthma, as defined by the 2006 GINA guideline, for at least 6 months prior to screening and with a FEV 1 61-85% of the predicted normal values (according to Quanjer et al. 1993) were randomised to treatment sequences comprising a single-dose administration of 5-(2-{[6-(2,2-difluoro-2-phenylethoxy)hexyl]amino}-1-(R)-hydroxyethyl)-8-hydroxyquinolin-2(1H)-one heminapadisylate (at metered nominal doses of 5, 10 and 25 micrograms in the Cyclohaler® device), two administrations (at time points 0 and 12 hours) of Salmeterol (at a metered nominal dose of 50 micrograms in the Cyclohaler® device) and placebo administered all of them by means of a dry powder inhaler. Lung function measurements included (by spirometry) FEV1, PEF, FVC, FEF25-75, and (by body plethysmography) sGaw and Raw.

[2] = Clinical Phase II study: pharmacokinetics, plasma level after inhalation; settings: subjects receiving the dose of 5 micrograms by inhalation
Text: as §1, §2

[3] = tested on: asthma patients; assay: Clinical Phase II study: safety and tolerability, adrenergic adverse events
Text: as §1, §2

[4] = single dose 5 micrograms, patients with asthma

O=c1ccc2c([C@@H](O)CNCCCCCCOCC(F)(F)c3ccccc3)ccc(O)c2[nH]1 [5-(2-{[6-(2,2-difluoro-2-phenylethoxy)hexyl]amino}-1-(R)-hydroxyethyl)-8-hydroxyquinolin-2(1H)-one]
differences in dose effect between the different doses ([1]; 5, 10 and 25 micrograms): no evidence of differences in dose effect
bronchodilatory action, time after dosing ([1]; all doses (5, 10 and 25 micrograms), single inhalation): up to 36 hours
bronchodilation [1, 4]: supramaximal long-lasting bronchodilation
increase in average trough FEV1 compared to salmeterol ([1]; single dose vs salmeterol 50 micrograms at 0 and 12 hours): statistically significant
average peak and trough FEV1 compared with placebo and with salmeterol ([1]; single inhaled doses 5, 10 and 25 micrograms (all doses tested), salmeterol 2 x 50 micrograms, mild to moderate persistent asthma): clearly increased
plasma level [2]: < 2.5 pg/mL
adverse events commonly seen after adrenergic stimulation (tremor, tachycardia, restlessness) ([3]; doses 5, 10 and 25 micrograms, single inhalation): occurred only with the two higher (10 and 25 micrograms) doses
systemic adrenergic effects [3, 4]: without producing systemic adrenergic effects
